Common to all, as to assay type: cell-based
Test [1] has as its system Providencia stuardii CNUR 5. The test is described as follows: MIC test, agar dilution with Steers multiwell inoculator. Conditions: CNUR5, TSA dishes, 24 h at 35°C, read-out: Minimum Inhibiting Concentration. Here is the method:
(§1) As to the antibacterial activity, there was determined the Least (Minimum) Inhibiting Concentration (MIC), by working according to the following operative conditions.
(§2) There were used suspensions of test germs (5 gram-positive and 15 gram-negative) having a known titre, kept freezed at -80°C and diluted, at the time of use, in peptonized water up to a concentration of 1-2.10⁷ cfu/ml.
(§3) A few mg of the products, according to the invention were weighed sufficient for preparing parent solutions in DMSO + NaOH (1N) containing 2560 µg/ml (64µg/ml/dish). From the thus prepared parent solutions there were prepared 12 serial dilutions (1:2) down to the concentration of 1.25 µg/ml.
(§4) 0.5 ml of the different dilutions of each product were distributed on dishes containing 19.5 ml of agarized medium (TSA), maintained in a fluid state at the temperature of 50°C. After slight stirring, the dishes were made to solidify and dry under hood (laminar flow).
(§5) The MIC tests (Least or "Minimum" Inhibiting Concentration) were performed by using a Steers multiwell inoculator having 36 wells, each containing 200 µl of bacterial suspension.
(§6) After inoculation, the dishes were placed into a thermostat and checked after 24 h of incubation at 35°C.
(§7) The MIC is defined as the lowermost product concentration (µg/ml) inhibiting the visible growth of the microorganisms.

In test [2] the test system is Pseudomonas aeruginosa CNUR 2. The test is described as above. The settings on record: CNUR2, TSA dishes, 24 h at 35°C, read-out: Minimum Inhibiting Concentration. On the procedure:
as §1, §2, §3, §4, §5, §6, §7

Test [3] relates to Pseudomonas aeruginosa CNUR 4. Described as above. The settings on record: CNUR4, TSA dishes, 24 h at 35°C, read-out: Minimum Inhibiting Concentration. On the procedure:
as §1, §2, §3, §4, §5, §6, §7

Test [4] relates to Shighella enteritidis. The description is as above. Conditions: TSA dishes, 24 h at 35°C, read-out: Minimum Inhibiting Concentration. Here is the method:
as §1, §2, §3, §4, §5, §6, §7

Test [5] has as its system Klebsiella pneumoniae ATCC 10031. The test is described as above. Conditions: ATCC10031, TSA dishes, 24 h at 35°C, read-out: Minimum Inhibiting Concentration. On the procedure: as §1, §2, §3, §4, §5, §6, §7
The subject of test [6] is Escherichia coli ATCC 8739. Described as above. The settings on record: ATCC8739, TSA dishes, 24 h at 35°C, read-out: Minimum Inhibiting Concentration. Here is the method: as §1, §2, §3, §4, §5, §6, §7
Test [7] relates to Enterobacter cloacae OMNF 1153. Described as above. The settings on record: OMNF1153, TSA dishes, 24 h at 35°C, read-out: Minimum Inhibiting Concentration. On the procedure:
as §1, §2, §3, §4, §5, §6, §7

In test [8] the test system is Pseudomonas aeruginosa ATCC 9027. The test is described as above. The settings on record: ATCC9027, TSA dishes, 24 h at 35°C, read-out: Minimum Inhibiting Concentration. Here is the method:
as §1, §2, §3, §4, §5, §6, §7

Test [9] has as its system Staphylococcus epidermidis CPHL A2. Described as above. The settings on record: CPHLA2, TSA dishes, 24 h at 35°C, read-out: Minimum Inhibiting Concentration. Here is the method:
as §1, §2, §3, §4, §5, §6, §7

Test [10] concerns Acinebacter calcoloaceticus OSMPV 1130. Described as above. Conditions: TSA dishes, 24 h at 35°C, read-out: Minimum Inhibiting Concentration. Here is the method:
as §1, §2, §3, §4, §5, §6, §7

The test system of test [11] is Enterobacter cloacae OMNF 1174. The description is as above. The settings on record: OMNF1174, TSA dishes, 24 h at 35°C, read-out: Minimum Inhibiting Concentration. Here is the method: as §1, §2, §3, §4, §5, §6, §7
For test [12], the system named is Staphylococcus epidermidis HCF Berset C. The description is as above. The settings on record: TSA dishes, 24 h at 35°C, read-out: Minimum Inhibiting Concentration. Here is the method: as §1, §2, §3, §4, §5, §6, §7
Test [13] concerns Escherichia coli 120. The test is described as above. Conditions: TSA dishes, 24 h at 35°C, read-out: Minimum Inhibiting Concentration. Here is the method:
as §1, §2, §3, §4, §5, §6, §7

Test [14] relates to Staphylococcus aureus ATCC 6538. The test is described as above. The settings on record: ATCC6538, TSA dishes, 24 h at 35°C, read-out: Minimum Inhibiting Concentration. On the procedure: as §1, §2, §3, §4, §5, §6, §7
Test [15] has as its system Streptococcus facealis LEP Br. The test is described as above. The settings on record: TSA dishes, 24 h at 35°C, read-out: Minimum Inhibiting Concentration. On the procedure: as §1, §2, §3, §4, §5, §6, §7
In test [16] the test system is Staphylococcus aureus MPR 5. The description is as above. Conditions: MPR5, TSA dishes, 24 h at 35°C, read-out: Minimum Inhibiting Concentration. On the procedure: as §1, §2, §3, §4, §5, §6, §7
Test [17] has as its system Escherichia coli CNUR 1. The test is described as above. Conditions: CNUR1, TSA dishes, 24 h at 35°C, read-out: Minimum Inhibiting Concentration. On the procedure:
as §1, §2, §3, §4, §5, §6, §7

In test [18] the test system is Proteus vulgaris CNUR 6. The test is described as above. Conditions: CNUR6, TSA dishes, 24 h at 35°C, read-out: Minimum Inhibiting Concentration. Here is the method:
as §1, §2, §3, §4, §5, §6, §7

The subject of test [19] is Escherichia coli ISF 432. The description is as above. Conditions: ISF432, TSA dishes, 24 h at 35°C, read-out: Minimum Inhibiting Concentration. On the procedure:
as §1, §2, §3, §4, §5, §6, §7

Test [20] concerns Escherichia coli CNUR 8. The description is as above. Conditions: CNUR8, TSA dishes, 24 h at 35°C, read-out: Minimum Inhibiting Concentration. On the procedure:
as §1, §2, §3, §4, §5, §6, §7

Test [21] relates to Gram -. The test is described as follows: MIC test, average over the 15 gram-negative test germs. Conditions: 24 h. On the procedure: as §1, §2, §3, §4, §5, §6, §7
In test [22] the test system is Gram +. The test is described as follows: MIC test, average over the 5 gram-positive test germs. Conditions: 24 h. Here is the method: as §1, §2, §3, §4, §5, §6, §7
Setting [23] is: geometrical average of the MIC over the 15 Gram - strains, read-out: Geometrical Average.
Where [24] appears, read: mean log of the MIC over the 15 Gram - strains, read-out: Log (converted).
[25] abbreviates: geometrical average of the MIC over the 5 Gram + strains, read-out: Geometrical Average.

SMILES strings stand for the structures. ≈ marks a conversion by molar mass, not a printed value. Read-outs that look alike come from different tables or passages of the source.

Consider `Nc1cc2c(=O)c(C(=O)O)cn(C3CC3)c2cc1N1CCSCC1` [Compound 15], for which the MIC in test [1] stood at 1 µg/mL (≈ 2.89 µM); in [2], 16 µg/mL (≈ 46.3 µM); in [3], 128 µg/mL (≈ 371 µM); in [4], 0.5 µg/mL (≈ 1.45 µM); in [5] it was 0.03 µg/mL (≈ 0.0868 µM); in test [6], 0.03 µg/mL (≈ 0.0868 µM). In addition, the MIC was 0.5 µg/mL (≈ 1.45 µM) in [7]; 2 µg/mL (≈ 5.79 µM) in test [8]; 1 µg/mL (≈ 2.89 µM) in test [9]; 1 µg/mL (≈ 2.89 µM) in test [10]; 0.5 µg/mL (≈ 1.45 µM) in test [11]; 2 µg/mL (≈ 5.79 µM) in test [12]. Further, the MIC in [13] was 0.12 µg/mL (≈ 0.347 µM); in test [14] it was 0.5 µg/mL (≈ 1.45 µM); in [15] it was 8 µg/mL (≈ 23.2 µM); in test [16], 0.5 µg/mL (≈ 1.45 µM); in [17], 0.5 µg/mL (≈ 1.45 µM); in [18] it was 128 µg/mL (≈ 371 µM). The MIC is 0.03 µg/mL (≈ 0.0868 µM) in test [19]; 0.12 µg/mL (≈ 0.347 µM) in test [20]; 0.748 µg/mL (≈ 2.17 µM) in test [21] (setting [23]); 0.748 µg/mL (≈ 2.17 µM) in test [21] (setting [24]); 1.32 µg/mL in test [22] (setting [25]); 1.32 µg/mL (≈ 3.82 µM) in [22] (read-out: Log (converted)).

With `CN1CCN(c2c(N)cc3c(=O)c(C(=O)O)cn(C4CC4)c3c2F)CC1` [Compound 22], the MIC in test [1] turned out to be 4 µg/mL (≈ 11.1 µM); in [2] it was 8 µg/mL (≈ 22.2 µM); in [3], 32 µg/mL (≈ 88.8 µM); in test [4], 0.25 µg/mL (≈ 0.694 µM); in [5], 0.06 µg/mL (≈ 0.166 µM); in test [6], 1 µg/mL (≈ 2.77 µM). Also, the MIC in test [7] was 0.25 µg/mL (≈ 0.694 µM); in test [8], 2 µg/mL (≈ 5.55 µM); in test [9], 4 µg/mL (≈ 11.1 µM); in test [10], 8 µg/mL (≈ 22.2 µM); in [11], 0.25 µg/mL (≈ 0.694 µM); in [12], 8 µg/mL (≈ 22.2 µM). The MIC in [13] is 0.06 µg/mL (≈ 0.166 µM); in [14] it was 4 µg/mL (≈ 11.1 µM); in test [15] it was 64 µg/mL (≈ 178 µM); in test [16], 4 µg/mL (≈ 11.1 µM); in test [17], 0.12 µg/mL (≈ 0.333 µM); in test [18], 32 µg/mL (≈ 88.8 µM). The MIC was 0.06 µg/mL (≈ 0.166 µM) in [19]; 0.12 µg/mL (≈ 0.333 µM) in test [20]; 0.783 µg/mL (≈ 2.17 µM) in test [21] (setting [23]); 0.783 µg/mL (≈ 2.17 µM) in test [21] (setting [24]); 8 µg/mL (≈ 22.2 µM) in [22] (read-out: Log (converted)).

As for `Nc1cc2c(=O)c(C(=O)O)cn(C3CC3)c2c(F)c1N1CCSCC1` [Compound 23], the MIC turned out to be 0.5 µg/mL (≈ 1.38 µM) in test [1]; 8 µg/mL (≈ 22 µM) in test [2]; 64 µg/mL (≈ 176 µM) in test [3]; 4 µg/mL (≈ 11 µM) in test [4]; 0.03 µg/mL (≈ 0.0826 µM) in [5]; 0.12 µg/mL (≈ 0.33 µM) in test [6]. In addition, the MIC in [7] is 1 µg/mL (≈ 2.75 µM); in test [8], 4 µg/mL (≈ 11 µM); in test [9], 0.5 µg/mL (≈ 1.38 µM); in test [10] it was 1 µg/mL (≈ 2.75 µM); in test [11], 1 µg/mL (≈ 2.75 µM); in test [12], 1 µg/mL (≈ 2.75 µM). In addition, the MIC in test [13] is 0.25 µg/mL (≈ 0.688 µM); in test [14] it was 0.5 µg/mL (≈ 1.38 µM); in [15], 4 µg/mL (≈ 11 µM); in test [16] it was 0.25 µg/mL (≈ 0.688 µM); in test [17] it was 0.5 µg/mL (≈ 1.38 µM); in test [18], 64 µg/mL (≈ 176 µM). The MIC in [19] is 0.06 µg/mL (≈ 0.165 µM); in [20] it was 0.25 µg/mL (≈ 0.688 µM); in test [21] (setting [23]), 1.04 µg/mL (≈ 2.85 µM); in [21] (setting [24]), 1.04 µg/mL (≈ 2.85 µM); in test [22] (setting [25]), 0.758 µg/mL; in [22] (read-out: Log (converted)) it was 0.759 µg/mL (≈ 2.09 µM).

Source of the values: EP0531958A1, “6-Aminoquinolones, their synthesis and their use as antibacterial agents” (MEDIOLANUM FARMACEUTICI S.P.A., priority 1991, dated 1993).
